From patent US10899758B2, “Inhibitors of the menin-MLL interaction” (Vitae Pharmaceuticals, LLC, priority 2016, dated 2021) come the findings set out here.

pIC50: −log10 of the molar value.

The test concerns the target T1, menin/MLL binding (biotinylated wild-type or mutated menin and MLL-AF9 fusion protein) (Homo sapiens, UniProt O00255).
T1 construct: biotinylated (1) wild-type menin or (2) mutated menin (described in Nature (2012) Vol. 482, pp. 542-548); fused on or other part: Biotin attached chemically (Sulfo-NHS-Biotin); no fused second protein is printed for menin
T1 sequence (O00255 1-459 limits assumed): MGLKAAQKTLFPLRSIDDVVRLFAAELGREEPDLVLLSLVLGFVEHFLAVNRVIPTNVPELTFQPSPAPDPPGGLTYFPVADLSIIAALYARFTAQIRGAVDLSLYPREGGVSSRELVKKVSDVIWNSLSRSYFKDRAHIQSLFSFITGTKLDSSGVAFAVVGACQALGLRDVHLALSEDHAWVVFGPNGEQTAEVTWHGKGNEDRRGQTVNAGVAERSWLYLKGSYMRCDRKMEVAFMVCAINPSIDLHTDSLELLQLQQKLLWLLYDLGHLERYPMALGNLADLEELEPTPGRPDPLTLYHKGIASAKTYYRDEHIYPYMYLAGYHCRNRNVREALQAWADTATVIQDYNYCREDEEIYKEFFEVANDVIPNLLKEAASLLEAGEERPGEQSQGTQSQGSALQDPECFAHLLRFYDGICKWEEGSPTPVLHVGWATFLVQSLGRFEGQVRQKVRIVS
Nature of the test: Assay 1 (Binding Assay): AlphaLISA menin/MLL binding. As to conditions: 5 nM biotinylated menin, MLL-AF9-FLAG lysate. As for the experimental part: Potencies of inhibitor compounds against menin/MLL binding were assessed by AlphaLISA assay using biotinylated (1) wild-type menin or (2) mutated menin (described in Nature (2012) Vol. 482, pp. 542-548) and MLL-AF9 fusion protein bearing a FLAG epitope at its C-terminus. Menin proteins were expressed in E. coli and covalently modified with biotin using EZ-Link™ Sulfo-NHS-Biotin (ThermoFisher Cat. No. 21217) according to manufacturer's protocol. MLL1-1,396 fused to AF91-92 and the C-terminal FLAG peptide was expressed in HEK293 cells and used as a lysate cleared at 21,000×g for 10 min.
Compounds (2 μL of solutions in DMSO) were dispensed in white 96-well half-area plates (Corning Cat. No. 3693) and incubated for 30 min at RT with 5 nM biotinylated menin and appropriate amount of MLL-AF9-FLAG lysate in 40 μL of 50 mM Tris-HCl buffer pH 7.4 containing 5% (v/v) DMSO, 50 mM NaCl, 0.01% (w/v) bovine serum albumin (BSA) and 1 mM DTT. To this incubation mixture, 40 μl of AlphaLISA anti-FLAG acceptor (PerkinElmer Cat. No. AL112C) and streptavidin donor (PerkinElmer Cat. No. 6760002) beads (10 μg/mL each) was added and incubation continued at RT for 60 min. Alpha (amplified luminescent proximity homogeneous assay) signal was measured on an Envision multi-label plate reader at the end of the incubation. All steps were conducted under dim fluorescent light.
These percent inhibition values were regressed against compound concentrations in the assay using four parameter logit non-linear curve fitting (XLFit, IDBS). The IC50 values were derived from the curve fitting as inflection points on the dose-response curves and are set out in Table 14 below.
Molecule `CC(C)N(C)C(=O)c1cc(F)ccc1-n1cc([C@H]2CC[C@@H](N3CCC(F)(F)CC3)CC2)c2ccncc21` [Example 111, 2-(3-(cis-4-(4,4-difluoropiperidin-1-yl)cyclohexyl)-1H-pyrrolo[2,3-c]pyridin-1-yl)-5-fluoro-N-isopropyl-N-methylbenzamide] showed a pIC50 of 6.00 to 7.00.

Regarding `CC(C)N(C)C(=O)c1cc(F)ccc1-n1cc(C2CCN(C[C@H]3C[C@@H](NS(C)(=O)=O)C3)CC2)c2ccncc21` (stereo in doubt) [Example 92, 5-fluoro-N-isopropyl-N-methyl-2-(3-(1-((cis-3-(methylsulfonamido)cyclobutyl)methyl)piperidin-4-yl)-1H-pyrrolo[2,3-c]pyridin-1-yl)benzamide], the pIC50 was over 7.00.

As for `CC(C)N(C(=O)c1cc(F)ccc1-n1cc(C2CCCN(C(=O)OC(C)(C)C)C2)c2ccncc21)C(C)C` (stereo not drawn) [Int. 10, tert-butyl 3-(1-(2-(diisopropylcarbamoyl)-4-fluorophenyl)-1H-pyrrolo[2,3-c]pyridin-3-yl)piperidine-1-carboxylate], the pIC50 is at most 6.00.

`CC(C)N(C)C(=O)c1cc(F)ccc1-n1cc([C@H]2CC[C@@H](N3CCOCC3)CC2)c2ccncc21` [Example 118, 5-fluoro-N-isopropyl-N-methyl-2-(3-(cis-4-morpholinocyclohexyl)-1H-pyrrolo[2,3-c]pyridin-1-yl)benzamide] showed a pIC50 of over 7.00.

For `CC(C)N(C)C(=O)c1cc(F)ccc1-n1cc(C2CCCNCC2)c2ccncc21` (stereo not drawn) [Example 41A, 2-(3-(azepan-4-yl)-1H-pyrrolo[2,3-c]pyridin-1-yl)-5-fluoro-N-isopropyl-N-methylbenzamide], the negative-log IC50 (pIC50) was 6.00 to 7.00.

In turn, `CC(C)N(C)C(=O)c1cc(F)ccc1-n1cc(C2CC3CN(C[C@H]4C[C@H](NS(C)(=O)=O)C4)CC3C2)c2ccncc21` (stereo partly drawn) [Example 89, 5-fluoro-N-isopropyl-N-methyl-2-(3-(2-((trans-3-(methylsulfonamido)cyclobutyl)methyl)octahydrocyclopenta[c]pyrrol-5-yl)-1H-pyrrolo[2,3-c]pyridin-1-yl)benzamide] showed a pIC50 of over 7.00.

Consider `CC(C)CCN1CCC(c2cn(-c3ccc(F)cc3)c3cnccc23)CC1` [Example 39, 1-(4-fluorophenyl)-3-(1-isopentylpiperidin-4-yl)-1H-pyrrolo[2,3-c]pyridine], for which the negative-log IC50 (pIC50) is 6.00 to 7.00.

`CC(C)N(C)C(=O)c1cc(F)ccc1-n1cc(C2CCCN(Cc3ccc4[nH]c(=O)[nH]c4c3)C2)c2ccncc21` (single isomer, unassigned) [Example 43B, 5-fluoro-N-isopropyl-N-methyl-2-(3-(1-((2-oxo-2,3-dihydro-1H-benzo[d]imidazol-5-yl)methyl)piperidin-3-yl)-1H-pyrrolo[2,3-c]pyridin-1-yl)benzamide]: the pIC50 was over 7.00.

Take `CC(C)N(C)C(=O)c1cc(F)ccc1-n1cc([C@H]2CC[C@H](N3CC[C@@H](CO)C3)CC2)c2ccncc21` [Example 102, 5-fluoro-2-(3-(trans-4-((R)-3-(hydroxymethyl)pyrrolidin-1-yl)cyclohexyl)-1H-pyrrolo [2,3-c]pyridin-1-yl)-N-isopropyl-N-methylbenzamide]: the negative logarithm of the IC50 (pIC50) is over 7.00.

As to `CC(C)N(C)C(=O)c1cc(F)ccc1-n1cc(C2CCN(CCc3cccc(C#N)c3)CC2)c2ccncc21` [Example 25, 2-(3-(1-(3-cyanophenethyl)piperidin-4-yl)-1H-pyrrolo[2,3-c]pyridin-1-yl)-5-fluoro-N-isopropyl-N-methylbenzamide], the pIC50 was over 7.00.

`CC(C)N(C)C(=O)c1cc(F)ccc1-n1cc(C2CCC3(CC2)CNC3)c2ccncc21` [Example 51, 2-(3-(2-azaspiro[3.5]nonan-7-yl)-1H-pyrrolo[2,3-c]pyridin-1-yl)-5-fluoro-N-isopropyl-N-methylbenzamide]: the pIC50 is 6.00 to 7.00.

For the molecule `Cc1c(CN2CCC(c3cn(-c4ccc(Cl)cc4)c4cnccc34)CC2)ccc2[nH]c(C#N)cc12` [Example 38, 5-((4-(1-(4-chlorophenyl)-1H-pyrrolo[2,3-c]pyridin-3-yl)piperidin-1-yl)methyl)-4-methyl-1H-indole-2-carbonitrile], the pIC50 is 6.00 to 7.00.

The molecule `CC(C)N(C)C(=O)c1cc(F)ccc1-n1cc(C2CCN(Cc3ccc(C(F)(F)F)cc3)CC2)c2ccncc21` [Example 11, 5-fluoro-N-isopropyl-N-methyl-2-(3-(1-(4-(trifluoromethyl)benzyl)piperidin-4-yl)-1H-pyrrolo[2,3-c]pyridin-1-yl)benzamide] had a negative-log IC50 (pIC50) of over 7.00.

The molecule `O=c1[nH]c2ccc(CN3CCC(c4cn(-c5ccc(F)cc5)c5cncnc45)CC3)cc2[nH]1` [Example 67, 5-((4-(5-(4-fluorophenyl)-5H-pyrrolo[3,2-d]pyrimidin-7-yl)piperidin-1-yl)methyl)-1H-benzo[d]imidazol-2(3H)-one] gave a pIC50 of at most 6.00.

`CC(C)N(C)C(=O)c1cc(F)ccc1-n1cc([C@H]2CC[C@@H](N3CCC[C@@H]3CO)CC2)c2ccncc21` [Example 101, 5-fluoro-2-(3-(cis-4-((R)-2-(hydroxymethyl)pyrrolidin-1-yl)cyclohexyl)-1H-pyrrolo [2,3-c]pyridin-1-yl)-N-isopropyl-N-methylbenzamide] gave a pIC50 of over 7.00.

`Fc1ccc(CN2CCC(c3cn(-c4ccc(F)cc4OCC4CC4)c4cnccc34)CC2)cc1` [Example 35, 1-(2-(cyclopropylmethoxy)-4-fluorophenyl)-3-(1-(4-fluorobenzyl)piperidin-4-yl)-1H-pyrrolo[2,3-c]pyridine] had a pIC50 of over 7.00.

Molecule `CC(C)N(C)C(=O)c1cc(F)ccc1-n1cc(C2CCC3(CC2)OCCO3)c2ccncc21` [Int. 17A, 2-(3-(1,4-dioxaspiro[4.5]decan-8-yl)-1H-pyrrolo[2,3-c]pyridin-1-yl)-5-fluoro-N-isopropyl-N-methylbenzamide] gave a pIC50 of at most 6.00.

The molecule `O=c1[nH]c2ccc(CN3CCC(c4cn(-c5ccccc5)c5cncnc45)CC3)cc2[nH]1` [Example 73, 5-((4-(5-phenyl-5H-pyrrolo[3,2-d]pyrimidin-7-yl)piperidin-1-yl)methyl)-1H-benzo[d]imidazol-2(3H)-one] showed a pIC50 of at most 6.00.

`CC(C)N(C)C(=O)c1cc(F)ccc1-n1cc(-c2ccc3c(c2)CCNC3)c2ccncc21` [Int. 17C, 5-fluoro-N-isopropyl-N-methyl-2-(3-(1,2,3,4-tetrahydroisoquinolin-6-yl)-1H-pyrrolo[2,3-c]pyridin-1-yl)benzamide] gave a pIC50 of 6.00 to 7.00.

Take `Cc1cc(F)ccc1-n1cc(C2CCN(Cc3ccc4[nH]c(C#N)cc4c3C)CC2)c2ncncc21` [Example 70, 5-((4-(5-(4-fluoro-2-methylphenyl)-5H-pyrrolo[3,2-d]pyrimidin-7-yl)piperidin-1-yl)methyl)-4-methyl-1H-indole-2-carbonitrile]: the negative-log IC50 (pIC50) is 6.00 to 7.00.

On to `CC(C)N(C)C(=O)c1cc(F)ccc1-n1cc([C@H]2CC[C@@H](N3CC[C@@H](CO)C3)CC2)c2ccncc21` [Example 103, 5-fluoro-2-(3-(cis-4-((R)-3-(hydroxymethyl)pyrrolidin-1-yl)cyclohexyl)-1H-pyrrolo[2,3-c]pyridin-1-yl)-N-isopropyl-N-methylbenzamide], for which the pIC50 is over 7.00.

In turn, `Cc1c(CN2CCC(c3cn(-c4ccccc4)c4cncnc34)CC2)ccc2[nH]c(C#N)cc12` [Example 72, 4-methyl-5-((4-(5-phenyl-5H-pyrrolo[3,2-d]pyrimidin-7-yl)piperidin-1-yl)methyl)-1H-indole-2-carbonitrile] gave a pIC50 of at most 6.00.

The molecule `Fc1ccc(-n2cc(C3CCN(CC4CCOCC4)CC3)c3ncncc32)cc1` [Example 65, 5-(4-fluorophenyl)-7-(1-((tetrahydro-2H-pyran-4-yl)methyl)piperidin-4-yl)-5H-pyrrolo[3,2-d]pyrimidine] had a pIC50 of at most 6.00.

`CC(C)N(C)C(=O)c1cc(F)ccc1-n1cc(C2CCN(C(=O)OC(C)(C)C)CC2)c2ccncc21` [Int. 1, tert-butyl 4-(1-(4-fluoro-2-(isopropyl(methyl)carbamoyl)phenyl)-1H-pyrrolo[2,3-c]pyridin-3-yl)piperidine-1-carboxylate]: the pIC50 is 6.00 to 7.00.
